The values below are quoted from earlier work in patent US6624294B2, “Regioselective synthesis of 2′-O-modified nucleosides” (ISIS Pharmaceuticals, Inc., priority 1999, dated 2003).

The conditions of the series: hydroxylamino function.
`CON` [MeONH2]: the pKa is recorded as 4.2.
Take `CON(C)C` [MeONHMe2]: the pKa is on record as 3.65.
As for `CNOC` [MeONHMe], the pKa was 4.75.
